Measurements taken from patent publication US5693668A, “Acetylcholinesterase inhibitors” (priority 1989, dated 1997).
Read-outs that look alike come from different tables or passages of the source.

How the values were obtained:
[1] = Pharmacokinetics and bioavailability of [14C]-MDL 73,745 in Beagle dogs; assay type: in vivo, Beagle dog; details: for half-life / clearance / Vd / Cmax / Tmax / bioavailability: dog, in vivo; for Vd: read-out: aVd; for bioavailability: normalized to 2 mg/kg iv
Protocol: Three male Beagle dogs were studied. Animals were fasted 12 h before drug administration but had free access to drinking water. The following single doses of [^14 C]-MDL 73,745 were administered: intravenous (iv): 1 and 2 mg/kg; oral (po): 10 mg/kg; subcutaneous (sc): 10 mg/kg. There was a two week wash-out period between each administration. Drug was administered as a suspension in 0.5% methyl cellulose. […]

[2] = In vivo transdermal delivery of MDL 73,745 from prototype patch in Beagle dogs; parameters: species or system Beagle dog
Protocol: (§1) Transdermal Bioavailability of MDL 73,745 from a prototype transdermal delivery system in Beagle Dogs
(§2) A `lead` prototype formulation was then evaluted in an in vivo dog model. […] The rate of in vivo transdermal delivery in the dog was calculated to be 7.7 μg/cm^2 /hr.
Three male Beagle dogs were studied. Animals were fasted 12 h before drug administration but had free access to drinking water. The following single doses of [^14 C]-MDL 73,745 were administered: intravenous (iv): 1 and 2 mg/kg; oral (po): 10 mg/kg; subcutaneous (sc): 10 mg/kg. There was a two week wash-out period between each administration. Drug was administered as a suspension in 0.5% methyl cellulose.
From the equation: S.ko=Cl.Css
S=area (cm^2) of the patch
Css =steady-state concentration (ng/ml)
ko-rate of release from the delivery system per unit surface area can be calculated: […]

plasma cholineesterase = assay: Inhibition of plasma cholinesterase activity during patch application in dogs; assay type: in vivo, Beagle dog; details: `lead` prototype patch, throughout patch application (96 hours)
Protocol: as §1, §2

[3] = Aqueous solubility of MDL 73,745 in Trycol medium; assay type: physicochemical; details: in presence of Trycol (polyethylene glycol 20 Oleyl ether), 5% in 0.9% sodium chloride
Protocol: Dermal elution media: A 5% solution of polyethylene glycol 20 Oleyl ether (Trycol®, Emery) in 0.9% sodium chloride was used as the receptor medium for the modified Franz Diffusion Cells. […] Temperature of the dermal elution media was maintained at 37° C. using a thermostated constant temperature circulating water bath.

[4] = iv, 2 mg/kg, iv 2 mg/kg, dog No. 17
[5] = iv, 2 mg/kg, iv 2 mg/kg, dog No. 18
[6] = iv, 2 mg/kg, iv 2 mg/kg, dog No. 19
[7] = iv, 2 mg/kg, iv 2 mg/kg, mean ± SD of 3 dogs
[8] = po, 10 mg/kg, oral 10 mg/kg, dog No. 17
[9] = po, 10 mg/kg, oral 10 mg/kg, dog No. 18
[10] = po, 10 mg/kg, oral 10 mg/kg, dog No. 19
[11] = po, 10 mg/kg, oral 10 mg/kg, mean ± SD of 3 dogs
[12] = sc, 10 mg/kg, subcutaneous 10 mg/kg, dog No. 17
[13] = sc, 10 mg/kg, subcutaneous 10 mg/kg, dog No. 18
[14] = sc, 10 mg/kg, subcutaneous 10 mg/kg, dog No. 19
[15] = sc, 10 mg/kg, subcutaneous 10 mg/kg, mean ± SD of 3 dogs

With `C[Si](C)(C)c1cccc(C(=O)C(F)(F)F)c1` [MDL 73,745, 2,2,2-Trifluoro-1-(3-trimethylsilylphenyl) ethanone] the half-life [1, 4] was 18.6 h, the clearance ([1]; iv, 2 mg/kg, iv 2 mg/kg, dog No. 17, read-out: Cltot) was 78.3 mL/min/kg and the Vd [1, 4] was 125 L/kg. The half-life [1, 5] was 28.1 h, the clearance ([1]; iv, 2 mg/kg, iv 2 mg/kg, dog No. 18, read-out: Cltot) was 63.3 mL/min/kg and the Vd [1, 5] was 153 L/kg. The half-life [1, 6] was 26.2 h, the clearance ([1]; iv, 2 mg/kg, iv 2 mg/kg, dog No. 19, read-out: Cltot) was 100 mL/min/kg and the Vd [1, 6] was 228 L/kg. The half-life [1, 7] was 24.3 ± 5 h, the clearance ([1]; iv, 2 mg/kg, iv 2 mg/kg, mean ± SD of 3 dogs, read-out: Cltot) was 80.5 ± 18.5 mL/min/kg and the Vd [1, 7] was 169 ± 53.3 L/kg. For the same molecule, the clearance ([1]; iv, iv data, read-out: drug clearance) was 960 mL/min, the Cmax [1, 8] was 15.8 ng/mL and the Tmax [1, 8] was 1 h. The half-life [1, 8] was 21.4 h, the Cmax [1, 9] was 15.3 ng/mL and the Tmax [1, 9] was 0.17 h. For the same molecule, the half-life [1, 9] was 29.5 h, the Cmax [1, 10] was 21.8 ng/mL and the Tmax [1, 10] was 1 h. It also gave a half-life [1, 10] of 17.4 h, a Cmax [1, 11] of 17.7 ± 3.58 ng/mL and a Tmax [1, 11] of 0.72 ± 0.48 h. For the same molecule, the half-life [1, 11] was 22.8 ± 6.2 h, the bioavailability ([1]; po, 10 mg/kg, oral 10 mg/kg, dog No. 17, read-out: F (AUCpo /AUCiv)) was 3.4% and the bioavailability ([1]; po, 10 mg/kg, oral 10 mg/kg, dog No. 18, read-out: F (AUCpo /AUCiv)) was 2.6%. It also gave a bioavailability ([1]; po, 10 mg/kg, oral 10 mg/kg, dog No. 19, read-out: F (AUCpo /AUCiv)) of 4.5%, a bioavailability ([1]; po, 10 mg/kg, oral 10 mg/kg, mean ± SD of 3 dogs, read-out: F (AUCpo /AUCiv)) of 3.5 ± 1% and a bioavailability ([1]; po, 10 mg/kg, oral, 10 mg/kg, read-out: Mean bioavailability (F)) of 4%. The Cmax [1, 12] was 68.4 ng/mL, the Tmax [1, 12] was 6 h and the half-life [1, 12] was 12.8 h. It also gave a Cmax [1, 13] of 42.9 ng/mL, a Tmax [1, 13] of 8 h and a half-life [1, 13] of 32.7 h. It also gave a Cmax [1, 14] of 44.7 ng/mL, a Tmax [1, 14] of 4 h and a half-life [1, 14] of 24.5 h. It also gave a Cmax [1, 15] of 52 ± 14.2 ng/mL, a Tmax [1, 15] of 6 ± 2 h and a half-life [1, 15] of 23.3 ± 10 h. It also gave a bioavailability ([1]; sc, 10 mg/kg, subcutaneous 10 mg/kg, dog No. 17, read-out: F) of 41%, a bioavailability ([1]; sc, 10 mg/kg, subcutaneous 10 mg/kg, dog No. 18, read-out: F) of 25% and a bioavailability ([1]; sc, 10 mg/kg, subcutaneous 10 mg/kg, dog No. 19, read-out: F) of 36%. It also gave a bioavailability ([1]; sc, 10 mg/kg, subcutaneous, 10 mg/kg, read-out: Mean bioavailability (F)) of 34%, a bioavailability ([1]; topical or ocular, 10 mg/kg, dermal patch, 10 mg/kg, read-out: Mean bioavailability (F)) of 16% and a bioavailability ([1]; topical or ocular, 10 mg/kg, topical dermal cream, 10 mg/kg, read-out: Mean bioavailability (F)) of 7%. The bioavailability ([1]; topical or ocular, 50 mg/kg, dermal patch, 50 mg/kg, read-out: Mean bioavailability (F)) was 12%, the bioavailability ([1]; topical or ocular, 50 mg/kg, topical dermal cream, 50 mg/kg, read-out: Mean bioavailability (F)) was 3% and the “Metabolic Index (AUCun /AUCRAD)” value ([1]; iv 2 mg/kg, dog No. 17) was 0.011. The “Metabolic Index (AUCun /AUCRAD)” value ([1]; iv 2 mg/kg, dog No. 18) was 0.015, the “Metabolic Index (AUCun /AUCRAD)” value ([1]; iv 2 mg/kg, dog No. 19) was 0.009 and the “Metabolic Index (AUCun /AUCRAD)” value ([1]; iv 2 mg/kg, mean ± SD of 3 dogs) was 0.012 ± 0.003. The “Metabolic Index (AUCun /AUCRAD)” value ([1]; oral 10 mg/kg, dog No. 17) was 0.0006, the “Metabolic Index (AUCun /AUCRAD)” value ([1]; oral 10 mg/kg, dog No. 18) was 0.0011 and the “Metabolic Index (AUCun /AUCRAD)” value ([1]; oral 10 mg/kg, dog No. 19) was 0.0006. For the same molecule, the “Metabolic Index (AUCun /AUCRAD)” value ([1]; oral 10 mg/kg, mean ± SD of 3 dogs) was 0.0008 ± 0.0003, the “Metabolic Index (AUCun /AUCRAD)” value ([1]; subcutaneous 10 mg/kg, dog No. 17) was 0.006 and the “Metabolic Index (AUCun /AUCRAD)” value ([1]; subcutaneous 10 mg/kg, dog No. 18) was 0.007. For the same molecule, the “Metabolic Index (AUCun /AUCRAD)” value ([1]; subcutaneous 10 mg/kg, dog No. 19) was 0.004, the “Metabolic Index (AUCun /AUCRAD)” value ([1]; subcutaneous 10 mg/kg, mean ± SD of 3 dogs) was 0.006 ± 0.002 and the “rate of in vivo transdermal delivery” value ([2]; `lead` prototype patch, dog, calculated) was 7.7 μg/cm^2 /hr. The plasma level ([2]; `lead` prototype patch, throughout patch application (96 hours)) was “constant, steady state plasma level”, the “ko, rate of release from the delivery system per unit surface area” value ([2]; patch 70% w/w MDL 73,745 in DuroTak 80-1074, 5 mg/cm^2, same for both doses, from S.ko=Cl.Css) was 7.7 μg/hr/cm^2 and the “inhibition of plasma cholineesterase activity” value (plasma cholineesterase) was “inhibition of plasma cholineesterase activity was achieved”. For the same molecule, the aqueous solubility [3] was “increases the aqueous solubility”.
